Results reported in article PMC10702189, “Tetrazine Glycoconjugate for Pretargeted Positron Emission Tomography Imaging of trans-Cyclooctene-Functionalized Molecular Spherical Nucleic Acids” (ACS Omega, 2023).
Where two headings read alike, the source gives them in different places.

Legend:
GLUT1 [1] = target: T1, GLUT1 (Homo sapiens, UniProt P11166); design: method as in PMID 33390018; conditions: CAL27 cells; cited from earlier work
T1 construct: host or cells: CAL27 squamous cell carcinoma cells
T1 sequence (P11166 1-492): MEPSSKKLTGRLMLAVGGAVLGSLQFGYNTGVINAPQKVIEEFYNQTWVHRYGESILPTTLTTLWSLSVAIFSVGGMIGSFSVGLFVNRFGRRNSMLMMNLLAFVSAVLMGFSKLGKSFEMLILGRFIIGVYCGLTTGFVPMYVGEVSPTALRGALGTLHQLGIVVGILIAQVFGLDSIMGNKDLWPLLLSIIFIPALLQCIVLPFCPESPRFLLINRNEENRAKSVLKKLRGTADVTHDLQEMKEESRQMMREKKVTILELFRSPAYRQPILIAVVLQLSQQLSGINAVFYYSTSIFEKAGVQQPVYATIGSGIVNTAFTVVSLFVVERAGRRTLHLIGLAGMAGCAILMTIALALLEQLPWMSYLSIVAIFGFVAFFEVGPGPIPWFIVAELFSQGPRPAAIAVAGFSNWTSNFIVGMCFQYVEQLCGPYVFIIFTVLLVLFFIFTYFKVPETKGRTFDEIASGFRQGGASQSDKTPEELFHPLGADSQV

CAL27 cell line = experiment: Concentration-dependent cell uptake in CAL27 cells (LC-MS/MS); type: cell-based, human; conditions: 5–400 μM, 5 min; for Km: read-out: Km of cellular uptake
Protocol: (§1) CAL27 squamous cell carcinoma cells (ATCC CRL-2095) were purchased from the American Type Culture Collection (ATCC, Manassas, VA, USA). CAL27 cells were cultured in Dulbecco’s modified Eagle medium (DMEM; Gibco, ThermoFisher Scientific, Waltham, MA, USA) supplemented with L-glutamine (2.0 mM; ThermoFisher Scientific, Waltham, MA, USA), heat-inactivated fetal bovine serum (10%; Gibco, ThermoFisher Scientific, Waltham, MA, USA), and penicillin (50 U/mL)–streptomycin (50 μg/mL) solution (ThermoFisher Scientific, Waltham, MA, USA). CAL27 cells (passages 6–10) were seeded at the density of 5 × 10^5 cells/wells onto 24-well plates. The cells were used in affinity and uptake studies 2 days after seeding. The culture medium was removed, and the cells were washed with prewarmed Hank’s balanced salt solution (HBSS) without glucose (HBSS; 125 mM NaCl, 4.8 mM KCl, 1.2 mM MgSO4, 1.3 mM KH2PO4, 1.3 mM CaCl2, and 25 mM HEPES adjusted to pH 7.4). The cells were then incubated with HBSS at 37 °C for 10 min before the experiments.
The cells were first preincubated as described above. The cell uptake of these novel compounds was studied by adding 5–400 μM of studied compounds in 250 μL of prewarmed glucose free HBSS buffer on top of the cell layer and incubating the cells at r.t. for 5 min, based on the optimal performance of D-[^14C]-glucose under these conditions. After incubation, the reaction was stopped with ice-cold buffer; the cells were then washed and lysed as described above.
For the LC-MS/MS analysis, an aliquot was taken from the lysates and diluted with acidified acetonitrile (0.1% formic acid) 1:1, including internal standard (IS). FDG-Tz was used as an internal standard for FDR-Tz, and vice versa. After protein precipitation, the samples were centrifuged for 10 min with 10,000 × g at 4 °C. The supernatant was then collected and transferred to vials for LC-MS/MS analysis.
The samples were analyzed with LC-MS/MS coupled with an Agilent 1200 series Rapid Resolution LC System (Agilent Technologies, Waldbronn, Germany) and Agilent 6410 Triple Quadrupole with an electrospray ionization (ESI) (Agilent Technologies, Palo Alto, CA, USA). The samples were injected (5 μL) into the reversed-phase HPLC column (Zorbax Eclipse XDB-C18 Rapid Resolution 4.6 × 50 mm, […], Agilent Technologies, Palo Alto, CA, USA). The aqueous mobile phase was 0.1% formic acid in water (A), while the organic mobile phase was 0.1% formic acid in acetonitrile (B).
The column temperature was 40 °C and the flow rate of 0.5 mL/min was used, with the following gradient 0–4 min: 5% → 95% B, 4–6 min: 95% B, 6–6.1 min: 95% → 5% B, 6.1–8 min: 5% B. The following instrument optimizations were used: 300 °C sheath gas heat, 6.5 L/min drying gas flow, 25 psi nebulizer pressure, and 4000 V capillary voltage, respectively. Detection was performed by using multiple reaction monitoring (MRM) with the following transitions: m/z 425 → 261 for FDG-Tz and m/z 395 → 261 for FDR-Tz.
The lower limit of quantification (LLOQ) for both studied compounds was 5 nM. These LC-MS/MS methods were also selective, accurate (RSD < 15%) and precise (RSD < 15%) over the range 5.0–2500 nM, with good linearity (R^2 > 0.993).
Three replicates were analyzed from each concentration, and the statistical analyses were performed using GraphPad Prism v.5.03 software (GraphPad Software, San Diego, CA, USA).

GLUT1 [2] = target: T1, GLUT1; experiment: Competition for GLUT1 binding with D-[14C]-glucose in CAL27 cells; type: cell-based; conditions: for IC50: 5 min at r.t., 1.8 μM D-[14C]-glucose, compounds 0.5–1400 μM, read-out: IC50, inhibition of D-[14C]-glucose (GLUT1 binding affinity)
Protocol: as §1
The GLUT1-binding ability of the studied compounds was performed by using a known radiolabeled GLUT1 substrate, D-[^14C]-glucose (PerkinElmer, Waltham, MA, USA). Briefly, after preincubation with 500 μL of prewarmed glucose free HBSS, the cells were incubated at r.t. for 5 min with studied compounds (0.5–1400 μM) containing 1.8 μM (0.1 mCi/mL) of D-[^14C]-glucose in glucose free HBSS (250 μL) and D-[^14C]-glucose as blank. The reaction was stopped with ice-cold buffer, and the cells were washed two times with ice-cold buffer on the ice bath, lysed with 250 μL of 1% perchloric acid, and mixed with 1.0 mL of emulsifier safe cocktail (PerkinElmer, Waltham, MA, USA). The radioactivity was measured by a liquid scintillation counter (MicroBeta[2] counter, PerkinElmer, Waltham, MA, USA), (Figure S12). Half-maximal inhibitory concentration (IC50) was calculated by nonlinear regression analysis.

For `OC[C@H]1OC(O)[C@H](O)[C@@H](O)[C@@H]1O` (stereo partly drawn) [D-glucose], the IC50 (GLUT1 [1]) is given as over 1000 µM.

For `O=C(CON=C[C@H](F)[C@@H](O)[C@H](O)C(O)CO)NCc1ccc(-c2nncnn2)cc1` (stereo partly drawn) [FDG-Tz, N-(4-(1,2,4,5-tetrazin-3-yl)benzyl)-2-((((2S,3S,4R)-2-fluoro-3,4,5,6-tetrahydroxyhexylidene)amino)oxy)acetamide], the “Concentration dependence of cellular uptake (shape of curve)” value (CAL27 cell line) was “concentration-dependent”, the “Vmax of cellular uptake” value (CAL27 cell line) was 63.2 ± 8.5 pmol/min/mg of protein and the Km (CAL27 cell line) was 27.6 ± 13.8 µM. The IC50 (GLUT1 [2]) was 324 µM.

With `O=C(CON=C[C@@H](O)[C@@H](O)[C@@H](O)CF)NCc1ccc(-c2nncnn2)cc1` [FDR-Tz, N-(4-(1,2,4,5-tetrazin-3-yl)benzyl)-2-((((2R,3R,4R)-5-fluoro-2,3,4-trihydroxypentylidene)amino)oxy)acetamide, reference compound] the “Vmax of cellular uptake” value (CAL27 cell line) was 27.8 ± 3.7 pmol/min/mg of protein, the Km (CAL27 cell line) was 3.6 ± 7.8 µM and the IC50 (GLUT1 [2]) was 22.4 µM. The “Fold higher affinity for GLUT1 compared to FDG-Tz” value (GLUT1 [2]; ratio of IC50 values) was about 15 times.
